We go through 3 compounds from patent EP1163907A1, “Use of l-threo-methylphenidate for the treatment of depression” (Pharmaquest Limited, priority 2000, dated 2001).

Molecules are shown by their SMILES. Like-named read-outs stand apart in the source and are kept apart here. Marks after values point to notes of the source that are not given here. Bounds are passed on as bounds.

In general, MRT refers to a mean duration of stay, worked out from the concentration-time curve. Usually Vdss stands for a proportionality between amount in the body and measured concentration, not a real space.

Data set [1] is described as follows: Balanced, randomized 4-phase cross-over study, Profile of Mood State (POMS) rating scale after intravenous administration. The settings on record: for composite "Dysphoria" ratings: POMS Anger-Hostility plus Depression plus Tension-Anxiety, compared with placebo, Figure 3; for vigor ratings: POMS Vigor-Activity, compared with 1-MPH and placebo, Figure 2; for effect on "Energy": POMS composite score (Vigor-Activity minus Fatigue-Inertia), Figure 1; for rank order of ratings of the three components of "Dysphoria" (Tension, Depression and Anger): four treatments, same order for each component, Figure 4. The class given is in vivo, healthy male volunteers. On the procedure:
A balanced, randomized 4-phase cross-over study was carried out in 12 healthy male volunteers who each received intravenous administrations of dl-MPH, d-threo-methylphenidate (d-MPH), 1-MPH and placebo. The Profile of Mood State (POMS) rating scale was used to estimate pharmacodynamic factors including Anger-Hostility, Confusion-Bewilderment, Depression-Dejection, Fatigue-Inertia, Tension-Anxiety, and Vigor-Activity. In addition composite scores were also produced for "Energy" ("Vigor-Activity" minus "Fatigue-Inertia") and 'Dysphoria" ("Anger-Hostility" plus […] plus "Tension-Anxiety").
This paradox apparently arose because d-MPH enhanced both components of "Energy" (Vigor-Activity and Fatigue-Inertia) over the test period.
The Fatigue-Inertia factor was not a simple rebound phenomenon.
There were very robust effects of drug condition on composite "Dysphoria" ratings. The d-MPH and to a lesser extent dl-MPH both increased "Dysphoria" compared with the placebo or 1-MPH.
Figure 4 depicts the response of the three components of "Dysphoria" (Tension, Depression and Anger) to the four treatments. […] Thus it appears that the overall pharmacodynamic effect of dl-MPH may represent an interaction between the "Dysphoric" effects of d-MPH and the mildly euphoric effects of 1-MPH. It is conceivable that the 1-MPH will emerge as euphoriant or antidepressant in subjects with higher baseline "Dysphoria" scores such as depressed patients in whom the dose of 1-MPH will have to be titrated.

For data set [2] the following is noted: mean ±SD in plasma; intravenous 10mg dl-MPH; 11 healthy male volunteers; cited from earlier work.
For data set [3] the following is noted: cited from earlier work.
Data set [4] has as its target central dopamine transporters (Homo sapiens, UniProt Q01959). The conditions noted are these: after oral administration of dl-MPH in humans; cited from earlier work.
The conditions of data set [5]: oral, cited from earlier work.

Sequence of central dopamine transporters (Q01959 whole entry): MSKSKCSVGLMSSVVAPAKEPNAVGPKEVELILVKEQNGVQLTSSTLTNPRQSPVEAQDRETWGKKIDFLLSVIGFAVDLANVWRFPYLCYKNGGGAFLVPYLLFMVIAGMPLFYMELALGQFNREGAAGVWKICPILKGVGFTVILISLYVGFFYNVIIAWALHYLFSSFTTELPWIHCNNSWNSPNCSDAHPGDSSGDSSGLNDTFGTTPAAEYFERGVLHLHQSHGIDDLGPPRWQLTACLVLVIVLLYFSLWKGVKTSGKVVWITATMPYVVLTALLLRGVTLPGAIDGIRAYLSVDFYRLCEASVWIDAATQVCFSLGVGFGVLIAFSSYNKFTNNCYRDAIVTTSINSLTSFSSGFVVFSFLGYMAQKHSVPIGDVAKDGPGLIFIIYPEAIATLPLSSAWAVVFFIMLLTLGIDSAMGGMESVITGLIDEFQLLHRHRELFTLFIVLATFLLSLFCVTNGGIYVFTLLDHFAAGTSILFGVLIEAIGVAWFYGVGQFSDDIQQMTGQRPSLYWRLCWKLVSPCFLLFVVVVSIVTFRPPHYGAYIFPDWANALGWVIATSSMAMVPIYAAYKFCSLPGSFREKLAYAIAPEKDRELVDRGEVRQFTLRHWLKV

`COC(=O)[C@H](c1ccccc1)[C@H]1CCCCN1` [d-MPH, d-threo-methylphenidate]: in data set [1], the “composite "Dysphoria" ratings” value is “increased”; the vigor ratings entry is on record as “significantly different”; the “effect on "Energy"” value is given as “not strongly energizing”; the “rank order of ratings of the three components of "Dysphoria" (Tension, Depression and Anger)” value (from here on “rank order”) is given as 1-MPH < placebo < dl-MPH < d-MPH. For the same compound, in data set [2], the CLR is listed as 0.005±0.003 l/kg.h^-1, the mean residence time (MRT) was 6.53 ± 1.62 h and the Vdss was 2.65 ± 1.11 L/kg. Moreover, the “absolute bioavailability (F)” value in data set [3] (after oral administration of the racemic drug) is 0.25. Also, the “blocking central dopamine transporters” value in data set [4] is reported as “very effective”.
With `COC(=O)[C@@H](c1ccccc1)[C@@H]1CCCCN1` [1-MPH, 2S,2'S-methyl 2-phenyl-2-(2'-piperidyl)acetate], in data set [1], the “composite "Dysphoria" ratings” value is reported as “numerically lower”; the “rank order” value is listed as 1-MPH < placebo < dl-MPH < d-MPH. Also, in data set [2], the CL was 0.73±0.028^h L/kg.h^-1, the CLR is 0.005±0.003^c l/kg.h^-1, the MRT is 2.44±0.51^b h and the volume of distribution (Vdss) is 1.80±0.91^b L/kg. Further, the “concentrations in plasma and brain” value in data set [3] (after oral administration of dl-MPH, extensive enantioselective first pass metabolism) is on record as “very low”.
On to `COC(=O)[C@H](c1ccccc1)[C@H]1CCCCN1` (racemic) [dl-MPH, dl-threo-methylphenidate], for which, in data set [1], the “composite "Dysphoria" ratings” value is reported as “increased”; the vigor ratings result was “significantly different”; the “effect on "Energy"” value was “enhanced”; the “rank order” value was 1-MPH < placebo < dl-MPH < d-MPH. For the same compound, the “Hamilton depression scale decreased” value in data set [5] (3 subjects, decreased minimally) is below 30%. Also, in data set [5] (7 subjects, depressive symptoms decreased markedly), the “Hamilton depression scale decreased” value is reported as above 55%. In data set [5] (n = 16), the “benefit in depressed patients” value was “statistically and clinically significant”.
